From PMC9741201, “X-ray Structures and Computational Studies of Two Bioactive 2-(Adamantane-1-carbonyl)-N-substituted Hydrazine-1-carbothioamides” (Molecules, 2022)
Read-outs that look alike come from different tables or passages of the source.

Target: urease (Jack bean) (Canavalia ensiformis, UniProt P07374)
Assay: in vitro urease inhibition, indophenol method
Type: biochemical

Chain of urease (Jack bean) (P07374 whole entry, looked up): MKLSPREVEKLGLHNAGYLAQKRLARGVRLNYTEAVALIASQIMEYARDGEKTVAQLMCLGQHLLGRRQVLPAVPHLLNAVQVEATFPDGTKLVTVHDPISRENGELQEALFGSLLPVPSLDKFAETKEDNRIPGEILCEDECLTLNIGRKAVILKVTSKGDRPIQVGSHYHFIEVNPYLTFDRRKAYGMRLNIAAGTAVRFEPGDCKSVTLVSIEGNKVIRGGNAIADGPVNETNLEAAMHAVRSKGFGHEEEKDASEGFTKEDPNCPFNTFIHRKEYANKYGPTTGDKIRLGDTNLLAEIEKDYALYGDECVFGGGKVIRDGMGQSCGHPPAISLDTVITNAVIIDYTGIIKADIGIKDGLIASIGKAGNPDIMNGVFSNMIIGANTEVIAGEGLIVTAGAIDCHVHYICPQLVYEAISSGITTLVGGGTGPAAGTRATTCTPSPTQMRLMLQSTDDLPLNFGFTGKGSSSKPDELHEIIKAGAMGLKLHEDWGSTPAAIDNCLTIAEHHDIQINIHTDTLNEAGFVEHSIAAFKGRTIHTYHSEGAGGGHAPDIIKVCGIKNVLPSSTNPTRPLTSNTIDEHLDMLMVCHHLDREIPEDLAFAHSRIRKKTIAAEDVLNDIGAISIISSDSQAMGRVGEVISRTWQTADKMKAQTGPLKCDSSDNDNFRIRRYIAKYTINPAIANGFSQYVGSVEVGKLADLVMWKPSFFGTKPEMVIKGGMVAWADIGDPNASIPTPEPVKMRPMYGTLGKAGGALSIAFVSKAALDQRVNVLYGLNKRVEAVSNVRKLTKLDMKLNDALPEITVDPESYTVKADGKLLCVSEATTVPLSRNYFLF

SMILES | IC50 (read-out: IC50 ± SEM (μM) *) [µM] | IC50 [µM]
O=C(NNC(=S)NC1CCCCC1)C12CC3CC(CC(C3)C1)C2 [compound 2, 2-(Adamantane-1-carbonyl)-N-cyclohexylhydrazine-1-carbothioamide] | 2.44 ± 0.11 | –
CC(C)(C)NC(=S)NNC(=O)C12CC3CC(CC(C3)C1)C2 [compound 1, 2-(Adamantane-1-carbonyl)-N-(tert-butyl)hydrazine-1-carbothioamide] | – | 1.2 ± 0.07
